Assays:
[1] = acute oral toxicity (LD50) to male mice; conditions: mouse, in vivo
[2] = tested on: female Sprague-Dawley rats; assay: CCl4-induced lung fibrosis (lung collagen accumulation) in rats; format: in vivo
Procedure: The animals used were female Sprague-Dawley rats fed on a commercial diet (Hankkija Cy, Helsinki, Finland). Forty rats were divided into four groups of 10, the first serving as a control group. In order to investigate the effect of Compound 4 on lung collagen accumulation, the injury was induced by injecting carbon tetrachloride (CC14) intraperitoneally at doses of 0.1 ml/100 g body weight (diluted with an equal volume of paraffin oil) twice a week for 40 days. The third group received simultaneous doses of CCl4 and Compound 4. Compound 4 was suspended in arabic gum and given by gastric intubation at doses of 100 mg/kg body weight 5 times weekly for 40 days. The fourth group received only Compound 4. Two animals both in the CC14 group died during the experiment.
At the end of the experiment, the rats were anaesthetized with ether, weighed, and decapitated. The lungs were rapidly removed, weighed and the right one of them stored at -70°C until assayed. Tissue specimens for the determination of hydroxyproline and total protein were homogenized with an Ultra-Turrax homogenizer at 0°C in 0.5 M acetic acid (5 ml/g of tissue), dialyzed against 0.5 M acetic acid, and hydrolyzed in 6 M HC1 at 120°C overnight. Tissue hydroxyproline was assayed by the method of Kivirikko et al. and tissue total protein using the a-amino nitrogen method of Rubinstein and Pryce.
The left lung was fixed by slowly injecting a 4% formaldehyde and 1% glutaraldehyde solution into the main bronchus with the 1 ml syringe under magnifying lens control. Inflation of the lungs with fixative was continued until the pleura was smooth and the organ appeared to be filled. The bronchus was then left unclosed and the lungs were placed in the same solution until fixed. When the bronchus is left unclosed, the human lungs, at least, seem to assume a fairly constant volume during fixation, a little greater than the functional residual capacity. The lungs were then sliced sagittally and the slices embedded in paraffin. Sections were cut at 5 µm and stained with heamatoxylin-eosin, Pearl's iron, van Gieson's and Verhoeff's elastic stains.

[3] = CCl4 + Compound 4 (group M+I), CCl4 0.1 ml/100 g i.p. twice a week, Compound 4 100 mg/kg orally 5 times weekly, 40 days
[4] = Compound 4 alone (group M), 100 mg/kg by gastric intubation 5 times weekly for 40 days, no CCl4

COC(=O)C(C(=O)OC)=C1SC=CS1 [Compound 1]
LD50 [1]: > 6000 mg/kg

CCOC(=O)C(C(=O)OCC)=C1SC=CS1 [Compound 2]
LD50 [1]: 4900 mg/kg

CCCOC(=O)C(C(=O)OCCC)=C1SC=CS1 [Compound 3]
LD50 [1]: > 6000 mg/kg

CC(C)OC(=O)C(C(=O)OC(C)C)=C1SC=CS1 [Compound 4]
Lung relative protein (mg/g of lung weight) [2, 3]: 20.61±2.05 mg/g of lung weight | Lung total protein (mg/lungs) [2, 3]: 40.07±6.05 mg/lungs | Lung weight/ body weight (%) [2, 3]: 0.89±0.17% | total hydroxyproline content of the lungs ([2]; CCl4 + Compound 4, 100 mg/kg orally, 40 days (Figure 1)): normalized the values | foci of necrotic alveolar walls ([2]; CCl4 + Compound 4, histology): All the lungs showed some foci of necrotic alveolar walls | interstitial fibrosis ([2]; CCl4 + Compound 4 compared with CCl4-induced rats without Compound 4, histology): less interstitial fibrosis | Lung relative protein (mg/g of lung weight) [2, 4]: 22.20±2.76 mg/g of lung weight | Lung total protein (mg/lungs) [2, 4]: 38.31±4.90 mg/lungs | Lung weight/ body weight (%) [2, 4]: 0.81±0.12% | lungs exhibiting a fairly normal alveolar pattern ([2]; rats which received CCl4 and Compound 4, histology): Five out of the nine | lungs showing variable evidence of inflammatory reaction with minimal oedema ([2]; rats which received CCl4 and Compound 4, nine lungs, histology): four | alveolar pattern in the lungs ([2]; ten rats which received Compound 4 alone, histology): normal

CCCCOC(=O)C(C(=O)OCCCC)=C1SC=CS1 [Compound 5]
LD50 [1]: > 6000 mg/kg

CC(C)COC(=O)C(C(=O)OCC(C)C)=C1SC=CS1 [Compound 6]
LD50 [1]: 4700 mg/kg

CCOC(=O)C(C(=O)OC(C)C)=C1SC=CS1 [Compound 7]
LD50 [1]: 2700 mg/kg

COC(=O)C(C(=O)OCC(C)C)=C1SC=CS1 [Compound 8]
LD50 [1]: 5800 mg/kg
